Like-named read-outs stand apart in the source and are kept apart here.
Columns and labels:
[1] = test system: histamine-induced bronchoconstriction; assay: Reversal of histamine-induced bronchoconstriction in the anesthetized guinea pig; type: in vivo; conditions: guinea pigs; for ED50: Cavia porcellus, iv, dose required to reverse the histamine response by 50%; for maximum effect (maximum percent reversal of histamine-induced bronchoconstriction): i.v.
Protocol: Reversal of histamine-induced bronchoconstriction in the anesthetized guinea pig
A modification of the general method of H. Konzett and R. Rossler [Naunyn-Schmiedeberg's Arch. Pharmakol.
Male Duncan-Hartley guinea pigs (400-600) were anesthetized using an intratraperitoneal injection of urethane (1.5 g/kg). After the neck area was shaved, the animal was placed in the dorsal recumbent position on a Narco temperature controlled surgical board (37° C.) to maintain body temperature. Following a midline neck incision, the carotid artery and jugular vein were cannulated using PE50 polyethylene tubing. Both catheters were flushed with heparinized saline (20 U/mL) to prevent clotting. The trachea was then cannulated using a 15 gauge Leuer stub and was connected to a Harvard Apparatus small animal respirator. The animal was ventilated at a constant rate and volume (52 breaths/minute and 1 mL room air/[…] body weight). Airway pressure was measured using a Statham pressure transducer connected to the side port of the tracheal cannula. The arterial blood pressure was measured using a Statham pressure transducer connected to the carotid artery. Both transducers were connected to a Gould chart recorder to produce the desired physiographs.
After allowing the animal to stabilize for 10 minutes, aerosolized histamine (0.01%) was delivered to the airways using a DeVilbiss ultrasonic nebulizer connected in-line between the respirator and the guinea pig. After the maximum bronchoconstriction was reached, as evidenced by a maximum plateau in airway pressure, an injection of vehicle (0.6 mL) was administered via the jugular vein. […] At the end of the experiment, terbutaline sulfate (1 mg/mL), a beta agonist, was injected i.v. to determine if further bronchodilation could be achieved The nebulizer was then turned off and the minimum airway pressure was recorded to determine the final baseline pressure.
ED50 (mg/kg) values and maximum effect (%) were calculated using SAS and PROBIT computer analyses. […] The maximum effect is the maximum percent reversal of histamine-induced bronchoconstriction produced by the test compound.

[2] = test system: pentobarbital-induced heart failure; assay: Pentobarbital-induced heart failure in rats; type: in vivo, rat (Sprague-Dawley); conditions: for ED40: Rattus norvegicus, iv; for heart rate, maximum recovery dose: bracketed value under RD40 heart rate
Protocol: Adult male Sprague-Dawley rats (350-450 g) were used in this example. Animals were anesthetized using sodium pentobarbital (40-50 mg/kg, i.p.) and placed supine on a heated (37° C.) surgical table. A 7F pressure tipped catheter (Millar) was inserted into the left carotid artery and advanced into the left ventricle of the heart to measure left ventricular pressure (LVP), dP/dt and heart rate (HR). Mean arterial blood pressure (MABP) was monitored via a PE-50 catheter placed into a femoral artery. The right jugular vein and a femoral vein were catheterized with PE-10 tubing for infusion of the test compounds and pentobarbital, respectively.
Following bilateral cervical vagotomy, a 15 gauge blunt needle was inserted into the trachea via a midcervical tracheostomy to ventilate the animals (60/minute, TV=2.3 mL) Each animal was allowed a 5-10 minute period to stabilize and control measurements were recorded. A dose of 60-70 mg/kg of pentobarbital wa then administered slowly over a 5 minute period via the femoral vein until MABP was stabilized at 60 mm Hg, at which time an infusion of 0.2 mg/kg/minute of pentobarbital was begun and continued throughout the experiment. Each animal was then allowed 10-15 minutes to stabilize and values representing heart failure were recorded. Control and test compounds were tested in a cumulative-dose manner using at least four doses. Dose-related effects, e.g., dP/dt and MABP were continually monitored during a 15 minute recovery period between each dose. At the time of the peak dP/dt response during each recovery period, values for all four variables were recorded. The animals were sacrificed using a lethal injection of pentobarbital 15 minutes following the last dose of the test compound. Only one compound was administered to each animal.
The RD40 is defined as the dose of compound required to achieve a 40% recovery in the variable (dP/dt, MABP) being measured. It was calculated for each compound using an SAS® probit analysis on a Vax computer. Briefly, the program transforms the dose into log 10 and calculates the line of least squares using the mean value for recovery at each dose. In most instances the RD40 was then extrapolated, but in those instances where a full dose-response curve was not achieved because of the limited solubility of the compound, the RD40 was estimated.

[3] = test system: basal heart rate and basal blood pressure; assay: Cardiovascular effects (basal heart rate and basal blood pressure) in guinea pigs; type: in vivo, guinea pig; conditions: i.v., at 2 × histamine-reversal ED50, * = not significant
Protocol: Cardiovascular effects (basal heart rate and basal blood pressure) in guinea pigs
Male guinea pigs were anesthetized with urethane and the carotid artery and jugular vein were cannulated. Aortic blood pressure was recorded from a pressure transducer and the signal was integrated to give a heart rate signal.
Each animal received a single intravenous injection of one compound. The dose of each compound was based upon the ED50 value from the reversal of histamine-induced bronchoconstriction in the anesthetized guinea pig. Thus the various compounds were studied at equipotent bronchodilator doses (2×ED50). A group of control animals received injections of vehicle only. Changes in heart rate and blood pressure from pre-injection baseline values produced by drugs or vehicle were compared.

[4] = test system: A1 and A2 adenosine receptors; conditions: A1 versus A2; cited from earlier work
[5] = test system: responses to adenosine; conditions: all tissues studied, except rat hippocampus; cited from earlier work
[6] = cited from earlier work
[7] = bronchial asthma; cited from earlier work
[8] = rats, i.v., dose for 40% recovery in dP/dt, extrapolated or estimated by probit, read-out: RD40, dP/dt
[9] = rats, i.v., extrapolated or estimated by probit, read-out: RD40, heart rate

Row | SMILES | ED50 [1] [mg/kg] | maximum effect (maximum percent reversal of histamine-induced bronchoconstriction) [1] [%] | ED40 [2, 8] [mg/kg] | ED40 [2, 9] [mg/kg] | dP/dt, maximum recovery ([2]; rats, i.v.) [%] | heart rate, maximum recovery dose ([2]; rats, i.v.) [mg/kg] | Basal blood pressure [3] [%] | Basal heart rate [3] [%] | effectiveness in displacing ligands from both the A1 and A2 adenosine receptors [4] | effectiveness in diminishing responses to adenosine [5] | cardiac stimulation ([6]; in vivo) | perfusion of organs ([6]; in vivo) | peripheral vascular resistance ([6]; in vivo) | heart rate ([6]; therapeutic doses, effect short-lived in man) | ED40 ([2]; read-out: RD40, dP/dt) [mg/kg] | ED40 ([2]; read-out: RD40, heart rate) [mg/kg] | vital capacity [7]
1 | CCCn1c(=O)c2[nH]c(C3CCC(O)C3)nc2n(CCC)c1=O (mixture of isomers) [cis/trans] | 20.3 ± 4.6 | 64.0 ± 4.8 | 19 | 20 | 30 | 30 | 65 ± 3 | 86 ± 4 |  |  |  |  |  |  |  |  | 
2 | CCCn1c(=O)c2[nH]c([C@H]3CC[C@H](O)C3)nc2n(CCC)c1=O (relative stereo) [trans, trans-8-(3-hydroxycyclopentyl)-1,3-dipropylxanthine] | 11.6 ± 1.6 | 78.5 ± 4.0 | 7.8 | 3.1 | 71 | 120 | 96 ± 8 | 107 ± 5 |  |  |  |  |  |  |  |  | 
3 | Cn1c(=O)c2c(ncn2C)n(C)c1=O [caffeine] |  |  |  |  |  |  |  |  | about equally effective |  |  |  |  |  |  |  | 
4 | Nc1cc(-c2ccncc2)c[nH]c1=O [Amrinone] |  |  | 4.12 | 77 | 63 | 10 |  |  |  |  |  |  |  |  |  |  | 
5 | CCCn1c(=O)c2[nH]c([C@H]3CC[C@@H](O)C3)nc2n(CCC)c1=O (relative stereo) [cis, cis-8-(3-hydroxycyclopentyl)-1,3-dipropylxanthine] | 14.1 ± 3.6 | 72.8 ± 6.8 | 17.7 | 120 | 53 | 20 | 90 ± 5 | 106 ± 3 |  |  |  |  |  |  |  |  | 
6 | CCCn1c(=O)[nH]c(=O)c2[nH]cnc21 [Enprofylline, 3-propylxanthine] | 13.1 ± 3.1 | 84.8 ± 3.6 | 48 | 93 | 30 | 50 | 76 ± 10 | 120 ± 6 |  | much less effective than theophylline |  |  |  |  |  |  | 
7 | Cn1c(=O)c2[nH]cnc2n(C)c1=O [Theophylline] | 35.1 ± 5.3 | 72.8 ± 6.6 |  |  | 50 | 50 | 66 ± 8 | 132 ± 4 | about equally effective |  | sometimes powerful cardiac stimulation | increased perfusion of most organs | modest decreases in peripheral vascular resistance | modest increases in heart rate | 18 | 94 | demonstrable increase in vital capacity
